{"source": "paper PMC12668138", "about": "“First-in-line 3D-printed intravaginal ring for nonhormonal contraception” (Research Square, 2025)", "key": {"[1]": {"experiment": "Saturation solubility in relevant solvents and release media", "assay_type": "physicochemical", "settings": "thermodynamic from solid, read-out: GML Saturation Solubility", "protocol": "Approximately 20 mg samples of GML were weighed into microcentrifuge tubes and 100 μL of solvent (n=3) was subsequently added. Samples were vortexed and assessed visually to determine dissolution progress. As dissolution occurred, an additional 20 mg of GML was added until complete saturation was reached. All samples were then stored, protected from light, overnight to confirm complete saturation. […] The supernatant samples were diluted with MeOH and drug concentration was subsequently analyzed via LC-MS as described above."}, "[2]": {"design": "method as in PMID 26585883", "settings": "cited from earlier work"}, "[3]": {"system": "sperm", "experiment": "Sander-Cramer assay, 1:6 semen:compound, with recovery", "assay_type": "cell-based, human", "settings": "for MEC after recovery ± SD: 1:6 semen:compound, diluted with 1 mL inhibitor-free media, 60 mins; for MEC ± SD: 30 sec exposure, 1:6 dilution ratio (50 μL semen + 250 μL compound)", "protocol": "(§1) Semen samples were collected from consented healthy male donors by masturbation after 2–5 days of sexual abstinence. The protocol was approved by the Eastern Virginia Medical School’s Institutional Review Board (IRB) at the Macon & Joan Brock Virginia Health Sciences, Old Dominion University. Semen analysis was performed according to WHO guidelines.[44]\n(§2) The highest spermicidal dilution and minimum effective concentration (MEC) for the test compounds were determined using the modified Sander-Cramer (SCr) assay.[45] […] Briefly, 250 μL of test compounds were incubated with 50 μL of semen for 30 sec at room temperature (RT). During the incubation period, each sample was examined under a phase-contrast microscope (E600 Nikon Eclipse, Melville, MY) for the presence of motile sperm. To evaluate the protective effect of seminal plasma, 50 μL of test compounds were incubated with 50 μL of semen (1:1 dilution ratio) for 30 sec at room temperature (RT). If any motile sperm (i.e. progressive, twitching, etc.) were found within 30 seconds, then the dilution was recorded as ‘Failed’. If no motile sperm were found, the dilution was considered as ‘Pass.’ The results from 4–6 independent experiments were combined, and the highest spermicidal dilution and MEC were calculated as MEC=initialconcentration/highestspermicidaldilution and presented as Mean ± SE.\n(§3) To see whether the sperm immobilizing effect of the compounds was reversible, 1 mL of warmed Ham’s F-10 media (Millipore Sigma, MA, USA) supplemented with 1% Human Serum Albumin (HSA) (Millipore Sigma, MA, USA) was added to each sample to further dilute the compound concentration and assess the reversibility of the sperm immobilization effect. Sperm were incubated for an additional 60 mins at 37°C. After this sperm “recovery” period, motility was re-evaluated with manual counting and calculated as: %SpermMotility=TotalMotileSperm/TotalMotile+immobileSperm*100."}, "[4]": {"system": "Human vaginal epithelial cells, VK2/E6E7", "experiment": "In vitro cytotoxicity, MTS assay", "assay_type": "cell-based", "settings": "24 hrs", "protocol": "Human vaginal epithelial cells, VK2/E6E7 (ATCC® CRL-2616™), were used to evaluate GML’s effect on cell viability. VK2 cells were propagated in Gibco™ Keratinocyte SFM (1×) media (Cat# 17005042, ThermoFisher Scientific, MA, USA) supplemented with 0.1 ng/mL epidermal growth factor, 50 μg/mL bovine pituitary extract, 0.4 mM CaCl2, and 1% penicillin and streptomycin (P/S; Cat# 15140–122, Gibco). Cells were incubated with varying concentrations of GML for 24 hrs at 37°C. Cell viability was assessed using CellTiter 96® AQueous Non-Radioactive Cell Proliferation (MTS) Assay (Cat# G5421, Promega, WI, USA) per manufacturer instructions."}, "[5]": {"system": "sperm", "experiment": "Modified Sander-Cramer assay, 1:1 semen:compound, with recovery", "assay_type": "cell-based, human", "settings": "for MEC: 30 sec exposure, 1:1 dilution ratio (50 μL semen + 50 μL compound)", "protocol": "as §1, §2, §3"}, "[6]": {"system": "sperm", "experiment": "Time-response sperm motility assay (single compounds, 1:1 dilution)", "assay_type": "cell-based, human", "protocol": "A time-response experiment was conducted to assess the impact of contraceptive compounds on sperm motility at various time points following incubation. Sperm samples were incubated with varying concentrations of LA or GML (1:1 dilution ratio) for 30 secs, 10, 30, 60, and 120 minutes. Concentrations of GML were selected based on the critical micelle concentration (CMC) of 16.4 μg/mL.[43] Each sample was examined under a phase-contrast microscope, and sperm motility was assessed manually."}, "[7]": {"experiment": "Lactic acid titration of simulated vaginal and seminal fluids (pH)", "assay_type": "physicochemical", "settings": "for pH reached: same LA concentration (24 mM)", "protocol": "The amount of lactic acid necessary for contraceptive efficacy was estimated by measuring solution pH. Simulated vaginal and seminal fluids, with physiologically-representative buffer capacities, were prepared as previously described by Rastogi et al.[43] Simulated vaginal fluid (SVF) was mixed with seminal fluid simulant (SFS) in a 1:5 ratio to represent potential fluid volumes during intercourse."}}, "note": "Where “and” joins values, the source holds several entries; their conditions need not be identical. Equal entries are not always repeated. Where two headings read alike, the source gives them in different places.", "data": [{"smiles": "CCCCCCCCCCCC(=O)OCC(O)CO", "note": "(stereo not drawn) [GML, glycerol monolaurate]", "values": [{"measurement": "solubility at 24 h", "setting": "[1]; acetone, organic solvent or mixture", "result": "255.2 ± 1.74", "unit": "mg/mL"}, {"measurement": "solubility at 24 h", "setting": "[1]; ethanol, organic solvent or mixture, EtOH", "result": "271 ± 18", "unit": "mg/mL"}, {"measurement": "solubility at 24 h", "setting": "[1]; methanol, organic solvent or mixture, MeOH", "result": "278 ± 45.2", "unit": "mg/mL"}, {"measurement": "solubility at 24 h", "setting": "[1]; simulated vaginal fluid with 2% Solutol, pH 4.2, aqueous with cosolvent or surfactant or cyclodextrin, SVF (w/ 2% solutol)", "result": "3.25 ± 0.45", "unit": "mg/mL"}, {"measurement": "solubility at 24 h", "setting": "[1]; water", "result": "4.48 ± 0.12", "unit": "mg/mL"}, {"measurement": "Critical micelle concentration (CMC)", "setting": "[2]", "result": 16.4, "unit": "µg/mL"}, {"measurement": "Concentration above which compound visibly precipitated", "setting": "[3]; 0.9% saline", "result": "above 0.2 mg/mL"}, {"measurement": "MEC after recovery ± SD", "setting": "[3]", "result": "1.7 ± 0.9 mg/mL and 1.7 ± 0.9^γ mg/mL"}, {"measurement": "MEC ± SD", "setting": "[3]", "result": "45 ± 5.5", "unit": "mg/mL"}, {"measurement": "Concentrations considered non-cytotoxic", "setting": "[4]", "result": "≤ 20", "unit": "µg/mL"}, {"measurement": "Concentrations significantly decreasing cell viability", "setting": "[4]", "result": "≥ 200", "unit": "µg/mL"}, {"measurement": "MEC after recovery", "setting": "[5]; 1:1 semen:compound, diluted with 1 mL inhibitor-free media, 60 mins", "result": "1.7 ± 0.9", "unit": "mg/mL"}, {"measurement": "MEC", "setting": "[5]", "result": "55 ± 5.8", "unit": "mg/mL"}, {"measurement": "Time to immobilize all sperm", "setting": "[6]; at 20 mg/mL, 1:1 dilution ratio", "result": 10, "unit": "min"}, {"measurement": "Concentration completely immobilizing sperm", "setting": "[6]; incubation 30–120 mins, 1:1 dilution ratio", "result": 2, "unit": "mg/mL"}]}, {"smiles": "CC(O)C(=O)O", "note": "(stereo not drawn) [LA, lactic acid]", "values": [{"measurement": "LA concentration at which mixture pH reached 4.2", "setting": "[7]; 1:5 mixture of SVF and SFS", "result": "24 mM and 2.16 mg/mL"}, {"measurement": "pH reached", "setting": "[7]; SSF alone", "result": 3.37}, {"measurement": "pH reached", "setting": "[7]; SVF alone", "result": 3.67}, {"measurement": "MEC after recovery ± SD", "setting": "[3]", "result": 9, "unit": "mg/mL"}, {"measurement": "MEC ± SD", "setting": "[3]", "result": 9, "unit": "mg/mL"}, {"measurement": "MEC", "setting": "[5]", "result": 18, "unit": "mg/mL"}, {"measurement": "MEC", "setting": "[6]; following 10 mins, persisting during 120 mins, 1:1 dilution ratio", "result": 10, "unit": "mg/mL"}, {"measurement": "Concentration inducing immediate sperm immobilization", "setting": "[6]; summary statement", "result": 10, "unit": "mg/mL"}, {"measurement": "MEC", "setting": "[6]; within 30 sec, 1:1 dilution ratio", "result": 20, "unit": "mg/mL"}]}]}
